Assay: Dissolution of drug in ionic liquid checked under a microscope
Type: physicochemical
Settings: 1.4 mg in 0.5 mL ionic liquid formulation, heated at 65° C. for 10 minutes
Method: According to the method of Example 1, the preparations of Examples 1, 4 and 5 comprising Lixisenatide as poorly absorbable drug were prepared. Specifically, the ingredients were mixed in the amounts (molar ratios) shown in the above Table 1 to prepare each ionic liquid formulation. Lixisenatide (1.4 mg) was added into the prepared ionic liquid formulation (0.5 mL) and the mixture was heated and dissolved at 65° C. for 10 minutes to prepare each preparation.
When Lixisenatide was mixed with an ionic liquid and checked the state under a microscope, it was determined that Lixisenatide was dissolved because the crystal of Lixisenatide disappeared by heating.
According to the method of Example 1, the preparations of Preparation Examples 1 to 3 and 22 to 23 comprising Lixisenatide as poorly absorbable drug were prepared. Specifically, the ingredients were mixed in the amounts (molar ratios) shown in Table 2 below to prepare each ionic liquid formulation, Semaglutide (1.4 mg) was added into the prepared ionic liquid formulation (0.5 mL), and the mixture was heated and dissolved at 65° C. for 10 minutes to prepare each preparation.
When Semaglutide was mixed with an ionic liquid and checked the state under a microscope, it was determined that Semaglutide was dissolved because the crystal of Semaglutide disappeared by heating.

Lixisenatide
state of the drug mixed with an ionic liquid under a microscope: dissolved

Semaglutide
state of the drug mixed with an ionic liquid under a microscope: dissolved

— US20240108578A1, “COMPOSITION IN WHICH ABSORBABILITY OF POORLY ABSORBABLE DRUG IS IMPROVED” (MEDRx Co., Ltd., priority 2021, published 2024)
